Legend:
Format in all cases: in vivo
[1] = system: bluegrass (annual bluegrass, Poa annua); test: Test D postemergence controlled growth environment test
Source text: (§1) Seeds of plant species selected from blackgrass (Alopecurus myosuroides), galium (catchweed bedstraw, Galium aparine), kochia (Kochia scoparia), oilseed rape (Brassica napus), barley, spring (Hordeum vulgare), wheat, spring (Triticum aestivum), oat, wild (Avena fatua), barley, winter (Hordeum vulgare) and wheat, winter (Triticum aestivum) were planted into a silt loam soil and treated preemergence with test chemicals formulated in a non-phytotoxic solvent mixture which included a surfactant.
(§2) At the same time, plants selected from these crop and weed species and also bluegrass (annual bluegrass, Poa annua), canarygrass (littleseed canarygrass, Phalaris minor), chickweed (common chickweed, Stellaria media), bromegrass, downy (downy bromegrass, Bromus tectorum), field poppy (Papaver rhoeas), field violet (Viola arvensis), foxtail, green (Setaria viridis), deadnettle (henbit deadnettle, Lamium amplexicaule), ryegrass, Italian (Lolium multiflorum), lambsquarters (Chenopodium album), pigweed (Amaranthus retroflexus), chamomile (scentless chamomile, Matricaria inodora), Russian thistle (Salsola kali), speedwell (bird's-eye speedwell, Veronica persica), buckwheat, wild (Polygonum convolvulus), mustard, wild (Sinapis arvensis), radish, wild (Raphanus raphanistrum), windgrass (Apera spica-venti), geranium, cutleaf (Geranium dissectum) and Canada thistle (Cirsium arvense) were planted in pots containing Redi-Earth® planting medium (Scotts Company, 14111 Scottslawn Road, Marysville, Ohio 43041) comprising spaghnum peat moss, vermiculite, wetting agent and starter nutrients and treated with postemergence applications of the test chemicals formulated in the same manner. Plants ranged in height from 2 to 18 cm (1- to 4-leaf stage). Treated plants and controls were maintained in a controlled growth environment for 14 to 21 d after which time all species were compared to controls and visually evaluated. Plant response ratings, summarized in Table D, are based on a scale of 0 to 100 where 0 is no effect and 100 is complete control. A dash (-) response means no test result.

[2] = system: canarygrass (littleseed canarygrass, Phalaris minor); test: as above
Source text: as §1, §2

[3] = system: field poppy (Papaver rhoeas); test: as above
Source text: as §1, §2

[4] = system: field violet (Viola arvensis); test: as above
Source text: as §1, §2

[5] = system: lambsquarters (Chenopodium album); test: as above
Source text: as §1, §2

[6] = system: corn (ZEAMD; Zea mays, cv. ‘Pioneer 1184’); test: Test of Tables L1 to L3, postemergence, mixtures of Cpd. No. 20 with benoxacor, isoxadifen-ethyl, or cloquintocet-mexyl; conditions: for Plant response rating (0 to 100 scale) ZEAMD: approx. 14 d
Source text: (§3) This test evaluated the effect of mixtures of Cpd. No. 20 with benoxacor, isoxadifen-ethyl, or cloquintocet-mexyl on several plant species. Seeds of plant species selected from corn (ZEAMD; Zea mays, cv. ‘Pioneer 1184’), soybean (GLXMA; Glycine max, cv. Pioneer 35T58), winter wheat (TRZAW; Triticum aetivum, cv. Arezzo), rice (ORYSS; Oryza sativa, cv. M202), and giant foxtail (SETFA; Setaria faberi) were planted in pots containing Redi-Earth® planting medium (Scotts Company, 14111 Scottslawn Road, Marysville, Ohio 43041) comprising spaghnum peat moss, vermiculite, wetting agent and starter nutrients and treated postemergence using test chemicals formulated in a non-phytotoxic solvent mixture which included a surfactant. Plants ranged in height from 7 to 10 cm and were in the one- to two-leaf stage for the postemergence treatment. Treated plants and untreated controls were maintained in a greenhouse for approximately 14 d, after which time all treated plants were compared to untreated controls and visually evaluated for injury. Plant response ratings, summarized in Tables L1 to L3, are based on a 0 to 100 scale where 0 is no effect and 100 is complete control. A dash (-) response means no test result. Test results are presented as a mean of 4 reps.

[7] = system: giant foxtail (SETFA; Setaria faberi); test: as above; conditions: for Plant response rating (0 to 100 scale) SETFA: approx. 14 d
Source text: as §3

[8] = system: rice (ORYSS; Oryza sativa, cv. M202); test: as above; conditions: for Plant response rating (0 to 100 scale) ORYSS: approx. 14 d
Source text: as §3

[9] = system: soybean (GLXMA; Glycine max, cv. Pioneer 35T58); test: as above; conditions: for Plant response rating (0 to 100 scale) GLXMA: approx. 14 d
Source text: as §3

[10] = system: winter wheat (TRZAW; Triticum aetivum, cv. Arezzo); test: as above; conditions: for Plant response rating (0 to 100 scale) TRZAW: approx. 14 d
Source text: as §3

[11] = Cpd. No. 20 alone 125 g a.i./ha
[12] = Cpd. No. 20 alone 250 g a.i./ha
[13] = Cpd. No. 20 alone 375 g a.i./ha

Structure (SMILES): Cc1ccc2ccc(C)c(-c3c(O)c(Cl)nn(C)c3=O)c2c1 [Cpd. No. 20, 6-chloro-4-(2,7-dimethyl-1-naphthalenyl)-5-hydroxy-2-methyl-3(2H)-pyridazinone]
- Plant response rating, Bluegrass ([1]; 16 g ai/ha): 0
- Plant response rating, Bluegrass ([1]; 31 g ai/ha): 5
- Plant response rating, Bluegrass ([1]; 62 g ai/ha): 5
- Plant response rating, Bluegrass ([1]; 125 g ai/ha): 10
- Plant response rating, Canarygrass ([2]; 16 g ai/ha): 10
- Plant response rating, Canarygrass ([2]; 31 g ai/ha): 15
- Plant response rating, Canarygrass ([2]; 62 g ai/ha): 20
- Plant response rating, Canarygrass ([2]; 125 g ai/ha): 35
- Plant response rating, Field Poppy ([3]; 16 g ai/ha): 80
- Plant response rating, Field Poppy ([3]; 31 g ai/ha): 85
- Plant response rating, Field Poppy ([3]; 62 g ai/ha): 100
- Plant response rating, Field Poppy ([3]; 125 g ai/ha): 100
- Plant response rating, Field Violet ([4]; 16 g ai/ha): 80
- Plant response rating, Field Violet ([4]; 31 g ai/ha): 80
- Plant response rating, Field Violet ([4]; 62 g ai/ha): 95
- Plant response rating, Field Violet ([4]; 125 g ai/ha): 95
- Plant response rating, Lambsquarters ([5]; 16 g ai/ha): 90
- Plant response rating, Lambsquarters ([5]; 31 g ai/ha): 95
- Plant response rating, Lambsquarters ([5]; 62 g ai/ha): 90
- Plant response rating, Lambsquarters ([5]; 125 g ai/ha): 98
- ZEAMD plant response rating, 0 to 100 scale ([6]; 125 g a.i./ha): 8
- ZEAMD plant response rating, 0 to 100 scale ([6]; 250 g a.i./ha): 1
- ZEAMD plant response rating, 0 to 100 scale ([6]; 375 g a.i./ha): 34
- Plant response rating (0 to 100 scale) ZEAMD [6, 11]: 8
- Plant response rating (0 to 100 scale) ZEAMD [6, 12]: 1
- Plant response rating (0 to 100 scale) ZEAMD [6, 13]: 34
- SETFA plant response rating, 0 to 100 scale ([7]; 125 g a.i./ha): 84
- SETFA plant response rating, 0 to 100 scale ([7]; 250 g a.i./ha): 88
- SETFA plant response rating, 0 to 100 scale ([7]; 375 g a.i./ha): 90
- Plant response rating (0 to 100 scale) SETFA [7, 11]: 84
- Plant response rating (0 to 100 scale) SETFA [7, 12]: 88
- Plant response rating (0 to 100 scale) SETFA [7, 13]: 90
- ORYSS plant response rating, 0 to 100 scale ([8]; 125 g a.i./ha): 5
- ORYSS plant response rating, 0 to 100 scale ([8]; 250 g a.i./ha): 18
- ORYSS plant response rating, 0 to 100 scale ([8]; 375 g a.i./ha): 23
- Plant response rating (0 to 100 scale) ORYSS [8, 11]: 5
- Plant response rating (0 to 100 scale) ORYSS [8, 12]: 18
- Plant response rating (0 to 100 scale) ORYSS [8, 13]: 23
- GLXMA plant response rating, 0 to 100 scale ([9]; 125 g a.i./ha): 15
- GLXMA plant response rating, 0 to 100 scale ([9]; 250 g a.i./ha): 29
- GLXMA plant response rating, 0 to 100 scale ([9]; 375 g a.i./ha): 39
- Plant response rating (0 to 100 scale) GLXMA [9, 11]: 15
- Plant response rating (0 to 100 scale) GLXMA [9, 12]: 29
- Plant response rating (0 to 100 scale) GLXMA [9, 13]: 39
- TRZAW plant response rating, 0 to 100 scale ([10]; 125 g a.i./ha): 28
- TRZAW plant response rating, 0 to 100 scale ([10]; 250 g a.i./ha): 36
- TRZAW plant response rating, 0 to 100 scale ([10]; 375 g a.i./ha): 39
- Plant response rating (0 to 100 scale) TRZAW [10, 11]: 28
- Plant response rating (0 to 100 scale) TRZAW [10, 12]: 36
- Plant response rating (0 to 100 scale) TRZAW [10, 13]: 39
